Data from US20150031655A1, “COMBINATION OF LIVER X RECEPTOR MODULATOR AND ESTROGEN RECEPTOR MODULATOR FOR THE TREATMENT OF AGE-RELATED DISEASES” (UNIVERSITY OF NORTH DAKOTA, priority 2011, published 2015).

How the values were obtained:
[1] = tested on: α-synuclein; assay: Western blot of α-synuclein protein levels in SH-SY5Y cells; type: cell-based, human; settings: for increase in α-synuclein protein / expression levels / 27-OHC-induced increase in α-synuclein protein levels: 24 h; for 27-OHC-induced increase in α-synuclein protein levels: co-treatment with 10 μM 27-OHC
Procedure: (§1) Human neuroblastoma SH-SY5Y cells were grown in DMEM/F12 medium containing 10% fetal bovine serum (FBS) and 1% antibiotic/antimycotic mix. Cells were maintained at 37° C. in a saturated humidity atmosphere containing 95% air and 5% CO2.
Treated SH-SY5Y cells were washed with PBS and trypsinized to collect the cells and centrifuged at 5000 g. The pellet was washed again with PBS and homogenized in NE-PER tissue protein extraction reagent (Thermo Scientific, Rockford, Ill.) supplemented with protease and phosphatase inhibitors. Protein concentrations from the cytosolic and nuclear homogenates were determined with BCA protein assay.
Proteins (10 μg) were separated on SDS-PAGE gels, transferred to a polyvinylidene difluoride membrane (BioRad, Hercules, Calif.), and incubated with the following monoclonal antibodies: anti-TH mouse antibody (1:1000; Sigma Aldrich, Saint Louis, Mo.), anti-α-synuclein mouse antibody (1:500; Chemicon, Temecula, Calif.), anti-ERα rabbit antibody (1:500; Abcam, Cambridge, Mass.), anti-ERβ rabbit antibody (1:200; Upstate, Lake Placid, N.Y.), anti-LXRα rabbit antibody (1:500; Abcam, Cambridge, Mass.), anti-LXRβ mouse antibody (1:500; Abcam, Cambridge, Mass.).
β-actin and Lamin A were used as a gel loading control for cytosolic homogenates and nuclear homogenates respectively. The blots were developed with enhanced chemiluminescence (Immmun-star HRP chemiluminescent kit, Bio-Rad, Hercules, Calif.). Bands were visualized on a polyvinylidene difluoride membrane and analyzed by LabWorks 4.5 software on a UVP Bioimaging System (Upland, Calif.). Quantification of results was performed by densitometry and the results analyzed as total integrated densitometric values (arbitrary units).

[2] = target: T1, LXRα (Homo sapiens, UniProt Q13133); assay: ChIP, LXRα binding to the LXRE in the α-synuclein promoter; type: cell-based; settings: SH-SY5Y; for LXRα binding to the LXRE on the α-synuclein promoter: treatment alone vs control
T1 construct: endogenous in cells; host or cells: SH-SY5Y human neuroblastoma cells
T1 sequence (Q13133 1-447): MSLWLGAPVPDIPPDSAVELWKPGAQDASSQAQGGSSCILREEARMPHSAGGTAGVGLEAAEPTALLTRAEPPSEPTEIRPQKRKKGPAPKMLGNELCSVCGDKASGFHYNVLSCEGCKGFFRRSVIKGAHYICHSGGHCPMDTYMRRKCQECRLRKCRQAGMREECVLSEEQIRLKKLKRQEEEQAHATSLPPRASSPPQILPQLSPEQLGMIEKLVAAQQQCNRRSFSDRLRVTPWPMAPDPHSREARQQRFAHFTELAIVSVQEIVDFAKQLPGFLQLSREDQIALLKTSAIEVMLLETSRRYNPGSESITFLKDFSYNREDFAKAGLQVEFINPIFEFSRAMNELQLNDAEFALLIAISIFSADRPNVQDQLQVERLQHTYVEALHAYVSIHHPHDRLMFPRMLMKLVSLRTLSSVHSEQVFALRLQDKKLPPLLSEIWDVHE
Procedure: as §1
ChIP analysis was performed to evaluate the extent of ERα/ERβ and LXRα/LXRβ binding to the DNA elements in the TH promoter and α-synuclein promoter regions respectively using “SimpleChIP™ Enzymatic Chromatic IP kit” from Cell Signaling (Boston, Mass.).
Briefly, cells from each treatment group (3×10^6 cells) were washed with PBS, trypsinized, centrifuged at 5000 g. The pellet containing the cells was further washed with PBS and cross-linked using 37% formaldehyde for 15 min followed by the addition of glycine solution to cease the cross-linking reaction.
The cells were washed with 4× volumes of 1×PBS and centrifuged at ˜220 g for 5 min. The pellet was resuspended and incubated for 10 min in 5 ml of tissue lysis buffer containing DTT and protease and phosphatase inhibitors. The subsequent steps to isolate the cross-linked chromatin were performed according to the manufacturer's protocol.
The cross-linked chromatin from each sample was apportioned into four equal parts. One quarter of the cross-linked chromatin was set aside as “input.” One quarter of the cross-linked chromatin from each sample was incubated with 5 μg of anti-ERα mouse antibody (Cell Signaling, Boston, Mass.) and 5 μg of anti-ERβ rabbit antibody (Upstate, Bedford, Mass.), or 5 μg of anti-LXRα rabbit antibody (Abcam, Cambridge, Mass.) and 5 μg of anti-LXRβ mouse antibody (Abcam, Cambridge, Mass.), while the remaining one quarter of the cross-linked chromatin from each sample was incubated with 5 μg of normal Rabbit IgG to serve as negative control. […]
The crude DNA extract was eluted and then washed several times with wash buffer containing ethanol (provided with the kit) followed by purification with the use of DNA spin columns provided by the manufacturer. […] The DNA fragment size was determined by electrophoresis on a 1.2% agarose FlashGel^R system (Lonza, Rockland, Me.).
The relative abundance of the ERα or ERβ antibody precipitated chromatin containing the ERE in the TH promoter region and LXRα or LXRβ antibody precipitated chromatin containing the LXRE in the α-synuclein promoter region was determined by qPCR using an iQ SYBR Green Supermix kit following the manufacturer's instructions (BioRad, Hercules, Calif.) and sequence specific primers (See Table 1 above). […] The fold enrichment of the ERE in the TH promoter region and LXRE in the α-synuclein promoter region was calculated using the ΔΔCt method (K. J. Livak et al., Methods, 25, 402 (2001)) which normalizes ChIP Ct values of each sample to the % input and background.

C[C@@H](CO)CCC[C@@H](C)[C@H]1CC[C@H]2[C@@H]3CC=C4C[C@@H](O)CC[C@]4(C)[C@H]3CC[C@]12C [27-OHC, 27-hydroxycholesterol]
increase in α-synuclein protein / expression levels ([1]; treatment alone vs control): 2.3 fold
LXRα binding to the LXRE on the α-synuclein promoter [2]: no significant augmentation

CC(C)CCC[C@@H](C)[C@H]1CC[C@H]2[C@@H]3C[C@@H]4O[C@@]45C[C@@H](OS(=O)(=O)O)CC[C@]5(C)[C@H]3CC[C@]12C [ECHS, 5α,6α-epoxycholesterol-3-sulfate]
27-OHC-induced increase in α-synuclein protein levels [1]: significantly attenuated
basal α-synuclein expression levels ([1]; treatment alone vs control): does not produce any effect
LXRα binding to the LXRE on the α-synuclein promoter [2]: did not significantly attenuate

Cl.O=C(O)Cc1cccc(OCCCN(Cc2cccc(C(F)(F)F)c2Cl)CC(c2ccccc2)c2ccccc2)c1 [GW3965, 3-[3-[N-(2-Chloro-3-trifluoromethylbenzyl)-(2,2-diphenylethyl)amino]propyloxy]phenylacetic acid hydrochloride]
27-OHC-induced increase in α-synuclein protein levels [1]: accentuates
increase in α-synuclein protein / expression levels ([1]; treatment alone vs control): 3 fold
LXRα binding to the LXRE in the α-synuclein promoter ([2]; in combination with 27-OHC): did not elicit any increase
LXRα binding to the LXRE on the α-synuclein promoter [2]: did not elicit any increase
